For 19 compounds, T/C results are on record in PubChem BioAssay AID256 (DTP/NCI, 2004).

Toxic doses and inconclusive results are not listed.

For the test, the system named is CD2F1 mice, L1210 leukemia ip, survival T/C. The experiment in a line: NCI In Vivo Anticancer Drug Screen. Data for tumor model L1210 Leukemia (intraperitoneal) in CD2F1 (CDF1) mice. The following applies: higher = longer survival. The method in brief:
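Mice carrying a transplanted tumor received test compound or vehicle alone. The value is the measurement in the treated group divided by that in the vehicle-treated control group.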

Setting [1] is: endpoint: mean survival time, dose: 100.0 mg/kg/injection, schedule: Q04DX003 (ip), vehicle: saline with Tween-80.
Where [2] appears, read: endpoint: mean survival time, dose: 200.0 mg/kg/injection, schedule: Q04DX003 (ip), vehicle: saline with Tween-80.
[3] abbreviates: endpoint: mean survival time, dose: 400.0 mg/kg/injection, schedule: Q04DX003 (ip), vehicle: saline with Tween-80.

For `O=C(CCl)Nc1ccc(-c2c(NC(=O)CCl)ncc3ccccc23)cc1`, the T/C by setting is: (endpoint: mean survival time, dose: 18.75 mg/kg/injection, schedule: Q04DX003 (ip), vehicle: other) 100 % of control; (endpoint: mean survival time, dose: 37.5 mg/kg/injection, schedule: Q04DX003 (ip), vehicle: other) 108 % of control; (endpoint: mean survival time, dose: 75.0 mg/kg/injection, schedule: Q04DX003 (ip), vehicle: other) 108 % of control; (endpoint: mean survival time, dose: 150.0 mg/kg/injection, schedule: Q04DX003 (ip), vehicle: other) 108 % of control.
Consider `COC(CO)(OC)c1ccccc1`, for which the T/C under setting [1] was 102 % of control, the T/C under setting [2] is 106 % of control and the T/C under setting [3] was 93 % of control.
In the case of `C(N=Nc1ccccc1)=C(c1ccccc1)c1ccccc1`, the T/C was 107 % of control (endpoint: mean survival time, dose: 100.0 mg/kg/injection, schedule: Q04DX002 (ip), vehicle: other); 103 % of control (endpoint: mean survival time, dose: 200.0 mg/kg/injection, schedule: Q04DX002 (ip), vehicle: other); 103 % of control (endpoint: mean survival time, dose: 400.0 mg/kg/injection, schedule: Q04DX002 (ip), vehicle: other).
Take `O=C1[C@@H]2C3C=CC([C@H]4C(=O)N(CO)C(=O)[C@@H]34)[C@@H]2C(=O)N1CO`: the T/C by setting is: (endpoint: median survival time, dose: 25.0 mg/kg/injection, schedule: Q01DX005 (ip), vehicle: Klucel (hydroxypropylcellulose) (HPC)) 107 % of control; (endpoint: median survival time, dose: 50.0 mg/kg/injection, schedule: Q01DX005 (ip), vehicle: Klucel (hydroxypropylcellulose) (HPC)) 109 % of control; (endpoint: median survival time, dose: 200.0 mg/kg/injection, schedule: Q01DX005 (ip), vehicle: Klucel (hydroxypropylcellulose) (HPC)) 101 % of control.
For the compound `O=C1c2ccccc2C(=O)N1CCN1C(=O)c2ccccc2C1=O`, the T/C reads like this: (endpoint: mean survival time, dose: 75.0 mg/kg/injection, schedule: Q01DX001 (ip), vehicle: saline with Tween-80) 94 % of control; (endpoint: mean survival time, dose: 150.0 mg/kg/injection, schedule: Q01DX001 (ip), vehicle: saline with Tween-80) 95 % of control; (endpoint: mean survival time, dose: 300.0 mg/kg/injection, schedule: Q01DX001 (ip), vehicle: saline with Tween-80) 94 % of control.
Regarding `NC(CCC(=O)NC(=O)OCc1ccccc1)C(=O)O` (configuration not stated), the T/C by setting is: under setting [1], 93 % of control; under setting [2], 101 % of control; under setting [3], 90 % of control.
Regarding `CCOc1ccc(OCC)c(NC(=O)Nc2ccc(OC)cc2)c1`, the T/C is 89 % of control (endpoint: mean survival time, dose: 100.0 mg/kg/injection, schedule: Q04DX002 (ip), vehicle: saline with Tween-80); 93 % of control (endpoint: mean survival time, dose: 200.0 mg/kg/injection, schedule: Q04DX002 (ip), vehicle: saline with Tween-80); 86 % of control (endpoint: mean survival time, dose: 400.0 mg/kg/injection, schedule: Q04DX002 (ip), vehicle: saline with Tween-80).
For the compound `CCCC(=O)OC1C2OP(=O)(O)OCC2OC1n1c(=S)[nH]c2c(N)ncnc21` (configuration not stated), the T/C (endpoint: mean survival time, dose: 6.25 mg/kg/injection, schedule: Q01DX005 (ip), vehicle: water) was 93 % of control; the T/C (endpoint: mean survival time, dose: 12.5 mg/kg/injection, schedule: Q01DX005 (ip), vehicle: water) is 97 % of control; the T/C (endpoint: mean survival time, dose: 25.0 mg/kg/injection, schedule: Q01DX005 (ip), vehicle: water) was 101 % of control; the T/C (endpoint: mean survival time, dose: 50.0 mg/kg/injection, schedule: Q01DX005 (ip), vehicle: water) is 93 % of control; the T/C (endpoint: mean survival time, dose: 100.0 mg/kg/injection, schedule: Q01DX005 (ip), vehicle: water) was 101 % of control.
With `NC(CCC(=O)NC(CSC(c1ccccc1)(c1ccccc1)c1ccc(F)cc1)C(=O)NCC(=O)O)C(=O)O` (configuration not stated), the T/C by setting is: (endpoint: mean survival time, dose: 25.0 mg/kg/injection, schedule: Q01DX009 (ip), vehicle: saline) 120 % of control; (endpoint: mean survival time, dose: 200.0 mg/kg/injection, schedule: Q01DX009 (ip), vehicle: saline) 150 % of control.
Regarding `O=S(=O)(C#Cc1ccccc1)c1ccccc1`, the T/C (endpoint: mean survival time, dose: 25.0 mg/kg/injection, schedule: Q01DX001 (ip), vehicle: Klucel (hydroxypropylcellulose) (HPC)) was 95 % of control; the T/C (endpoint: mean survival time, dose: 50.0 mg/kg/injection, schedule: Q01DX001 (ip), vehicle: Klucel (hydroxypropylcellulose) (HPC)) is 102 % of control; the T/C (endpoint: mean survival time, dose: 100.0 mg/kg/injection, schedule: Q01DX001 (ip), vehicle: Klucel (hydroxypropylcellulose) (HPC)) is 100 % of control.
In the case of `O=Cc1cc(Cl)ccc1O`, the T/C (endpoint: mean survival time, dose: 100.0 mg/kg/injection, schedule: Q01DX009 (ip), vehicle: saline with Tween-80) was 108 % of control; the T/C under setting [1] was 95 % of control; the T/C (endpoint: mean survival time, dose: 200.0 mg/kg/injection, schedule: Q01DX009 (ip), vehicle: saline with Tween-80) is 102 % of control; the T/C under setting [2] was 95 % of control.
In the case of `CN(C)/N=C(\CBr)c1ccccc1`, the T/C reads like this: (endpoint: mean survival time, dose: 50.0 mg/kg/injection, schedule: Q01DX009 (ip), vehicle: saline sonified) 96 % of control; (endpoint: mean survival time, dose: 100.0 mg/kg/injection, schedule: Q01DX001 (ip), vehicle: saline) 102 % of control; (endpoint: mean survival time, dose: 100.0 mg/kg/injection, schedule: Q01DX009 (ip), vehicle: saline sonified) 103 % of control; (endpoint: mean survival time, dose: 200.0 mg/kg/injection, schedule: Q01DX001 (ip), vehicle: saline) 100 % of control.
For `Nc1ccc2scnc2c1`, the T/C by setting is: under setting [1], 108 % of control; under setting [2], 96 % of control; under setting [3], 101 % of control.
For `Cn1cc(NC(=O)c2cc(NC(=O)c3cc(NC=O)cn3C)cn2C)cc1C(=O)NCCC(=N)N`, the T/C is, setting by setting: (endpoint: mean survival time, dose: 100.0 mg/kg/injection, schedule: Q04DX003 (ip), vehicle: alcohol) 108 % of control; (endpoint: mean survival time, dose: 200.0 mg/kg/injection, schedule: Q04DX003 (ip), vehicle: alcohol) 102 % of control; (endpoint: median survival time, dose: 12.5 mg/kg/injection, schedule: Q01DX009 (ip), vehicle: water) 104 % of control; (endpoint: median survival time, dose: 25.0 mg/kg/injection, schedule: Q01DX009 (ip), vehicle: water) 100 % of control; (endpoint: median survival time, dose: 50.0 mg/kg/injection, schedule: Q01DX009 (ip), vehicle: water) 103 % of control; (endpoint: median survival time, dose: 100.0 mg/kg/injection, schedule: Q01DX009 (ip), vehicle: water) 108 % of control.
Consider `CCCCCCCCCCCCCCCC(CCCC)CCCCCC` (configuration not stated), for which the T/C reads like this: (endpoint: mean survival time, dose: 100.0 mg/kg/injection, schedule: Q01DX001 (ip), vehicle: saline sonified) 108 % of control; (endpoint: mean survival time, dose: 200.0 mg/kg/injection, schedule: Q01DX001 (ip), vehicle: saline sonified) 98 % of control; (endpoint: mean survival time, dose: 400.0 mg/kg/injection, schedule: Q01DX001 (ip), vehicle: saline sonified) 104 % of control.
Take `Cc1ccc(CC(F)F)cc1`: the T/C was 101 % of control (endpoint: mean survival time, dose: 100.0 mg/kg/injection, schedule: Q01DX001 (ip), vehicle: saline with Tween-80); 98 % of control (endpoint: mean survival time, dose: 100.0 mg/kg/injection, schedule: Q04DX003 (ip), vehicle: saline sonified); 101 % of control (endpoint: mean survival time, dose: 200.0 mg/kg/injection, schedule: Q01DX001 (ip), vehicle: saline with Tween-80); 96 % of control (endpoint: mean survival time, dose: 200.0 mg/kg/injection, schedule: Q04DX003 (ip), vehicle: saline sonified); 103 % of control (endpoint: mean survival time, dose: 400.0 mg/kg/injection, schedule: Q01DX001 (ip), vehicle: saline with Tween-80); 96 % of control (endpoint: mean survival time, dose: 400.0 mg/kg/injection, schedule: Q04DX003 (ip), vehicle: saline sonified).
For the compound `CC(C)C(=O)OCCOC(=O)C(C)C`, the T/C (endpoint: mean survival time, dose: 100.0 mg/kg/injection, schedule: Q04DX003 (ip), vehicle: saline) was 100 % of control; the T/C (endpoint: mean survival time, dose: 200.0 mg/kg/injection, schedule: Q04DX003 (ip), vehicle: saline) is 97 % of control; the T/C (endpoint: mean survival time, dose: 400.0 mg/kg/injection, schedule: Q04DX003 (ip), vehicle: saline) is 96 % of control.
With `COc1cc([C@@H]2c3cc4c(c(O)c3C[C@H]3COC(=O)[C@@H]32)OCO4)cc(OC)c1OC`, the T/C (endpoint: mean survival time, dose: 10.0 mg/kg/injection, schedule: Q04DX003 (ip), vehicle: saline) was 100 % of control; the T/C (endpoint: mean survival time, dose: 20.0 mg/kg/injection, schedule: Q04DX003 (ip), vehicle: saline) was 108 % of control; the T/C (endpoint: mean survival time, dose: 40.0 mg/kg/injection, schedule: Q04DX003 (ip), vehicle: saline) is 105 % of control; the T/C (endpoint: mean survival time, dose: 80.0 mg/kg/injection, schedule: Q04DX003 (ip), vehicle: saline) was 121 % of control; the T/C (endpoint: mean survival time, dose: 125.0 micrograms/kg/injection, schedule: Q01DX009 (ip), vehicle: saline) was 100 % of control; the T/C (endpoint: mean survival time, dose: 250.0 micrograms/kg/injection, schedule: Q01DX009 (ip), vehicle: saline) is 108 % of control. The T/C is, setting by setting: (endpoint: mean survival time, dose: 500.0 micrograms/kg/injection, schedule: Q01DX009 (ip), vehicle: saline) 110 % of control; (endpoint: mean survival time, dose: 2000.0 micrograms/kg/injection, schedule: Q01DX009 (ip), vehicle: saline) 124 % of control; (endpoint: mean survival time, dose: 4000.0 micrograms/kg/injection, schedule: Q01DX009 (ip), vehicle: saline) 114 % of control.
On to `O=C(O)c1[nH]c(=O)[nH]c(=O)c1F.[Ga]`, for which the T/C is 123 % of control (endpoint: mean survival time, dose: 54.0 mg/kg/injection, schedule: Q01DX001 (ip), vehicle: saline with Tween-80) and 159 % of control (endpoint: mean survival time, dose: 177.0 mg/kg/injection, schedule: Q01DX001 (ip), vehicle: saline with Tween-80).
